{"source": "ChEMBL document CHEMBL3832051", "about": "“DailyMed|setid=970a767a-7a65-4cdf-84fe-4dbe0a77b80a | METRONIDAZOLE - metronidazole lotion|Physicians Total Care, Inc”", "assay": "Evaluation of pharmacokinetic parameters for metronidazole following topical administration of 7.5 mg of metronidazole (1 g metronidazole topical lotion) for 4 days to the faces of 8 patients.", "assay_type": "ADME, organism-based", "design": "dose 7.5 mg, route topical", "details": "human, in vivo, topical or ocular, dosed compound id 31, dosed compound name METRONIDAZOLE, gender male and female, regimen Twice daily, study dosing duration 4 days, tissue Plasma"}
{"smiles": "Cc1ncc([N+](=O)[O-])n1CCO", "note": "[METRONIDAZOLE]", "values": [{"measurement": "Cmax", "setting": "sampling time1 5 days", "result": 96, "unit": "ng/mL"}, {"measurement": "AUC at 96 h", "setting": "read-out: AUC(0-24)", "result": 962, "unit": "ng·h/mL"}]}
